Experimental data: PubChem BioAssay (NCI)
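These data come from cells grown in 96-well plates and exposed to compound for 48 hours at five concentrations. TGI marks complete inhibition of growth.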

Assays:
Assay in all cases: NCI anticancer screen, dose series, 48 h
UACC-257 melanoma = test system: UACC-257 melanoma
DMS 273 small cell lung = test system: DMS 273 small cell lung
SK-MEL-28 melanoma = test system: SK-MEL-28 melanoma
SR leukemia = test system: SR leukemia
HOP-62 NSCLC = test system: HOP-62 NSCLC
M19-MEL melanoma = test system: M19-MEL melanoma
K-562 leukemia = test system: K-562 leukemia
786-0 renal = test system: 786-0 renal
SN12C renal = test system: SN12C renal
HL-60(TB) leukemia = test system: HL-60(TB) leukemia
RPMI-8226 leukemia = test system: RPMI-8226 leukemia
TK-10 renal = test system: TK-10 renal
DMS 114 small cell lung = test system: DMS 114 small cell lung
RXF-631 renal = test system: RXF-631 renal
CAKI-1 renal = test system: CAKI-1 renal
HCT-116 colon = test system: HCT-116 colon
KM20L2 colon = test system: KM20L2 colon
SK-OV-3 ovarian = test system: SK-OV-3 ovarian
ACHN renal = test system: ACHN renal
MALME-3M melanoma = test system: MALME-3M melanoma
OVCAR-5 ovarian = test system: OVCAR-5 ovarian
RXF 393 renal = test system: RXF 393 renal
SF-295 CNS = test system: SF-295 CNS
HCT-15 colon = test system: HCT-15 colon
SF-539 CNS = test system: SF-539 CNS
SW-620 colon = test system: SW-620 colon
NCI-H460 lung = test system: NCI-H460 lung
OVCAR-3 ovarian = test system: OVCAR-3 ovarian
KM12 colon = test system: KM12 colon
LXFL 529 NSCLC = test system: LXFL 529 NSCLC
OVCAR-8 ovarian = test system: OVCAR-8 ovarian
SK-MEL-2 melanoma = test system: SK-MEL-2 melanoma
NCI-H23 lung = test system: NCI-H23 lung
NCI-H522 lung = test system: NCI-H522 lung
LOX IMVI melanoma = test system: LOX IMVI melanoma
HOP-92 NSCLC = test system: HOP-92 NSCLC
XF 498 CNS = test system: XF 498 CNS
CCRF-CEM leukemia = test system: CCRF-CEM leukemia
U251 CNS = test system: U251 CNS
HT29 colon = test system: HT29 colon
NCI-H226 lung = test system: NCI-H226 lung
SF-268 CNS = test system: SF-268 CNS
EKVX NSCLC = test system: EKVX NSCLC
SK-MEL-5 melanoma = test system: SK-MEL-5 melanoma
IGROV1 ovarian = test system: IGROV1 ovarian
HCC-2998 colon = test system: HCC-2998 colon
COLO 205 colon = test system: COLO 205 colon
UACC-62 melanoma = test system: UACC-62 melanoma
A549 NSCLC = test system: A549 NSCLC
SNB-19 CNS = test system: SNB-19 CNS
MOLT-4 leukemia = test system: MOLT-4 leukemia
DLD-1 colon = test system: DLD-1 colon
SNB-75 CNS = test system: SNB-75 CNS
OVCAR-4 ovarian = test system: OVCAR-4 ovarian
MDA-MB-435 = test system: MDA-MB-435
MCF7 breast = test system: MCF7 breast
DU-145 prostate = test system: DU-145 prostate
MDA-MB-231 breast = test system: MDA-MB-231 breast
A498 renal = test system: A498 renal
M14 melanoma = test system: M14 melanoma
HOP-18 NSCLC = test system: HOP-18 NSCLC
UO-31 renal = test system: UO-31 renal
T-47D breast = test system: T-47D breast
NCI/ADR-RES ovarian = test system: NCI/ADR-RES ovarian
HS 578T breast = test system: HS 578T breast
BT-549 breast = test system: BT-549 breast
PC-3 prostate = test system: PC-3 prostate
SNB-78 CNS = test system: SNB-78 CNS
MDA-N = test system: MDA-N

## CCC12CCCN(Cc3ccccc3)C1c1c(n(C)c3ccccc13)[C@H](C(=O)OC)C2 (stereo not given in full)
UACC-257 melanoma
  TGI: > 239 µM
DMS 273 small cell lung
  TGI: > 239 µM
SK-MEL-28 melanoma
  TGI: > 239 µM
SR leukemia
  TGI: > 239 µM
HOP-62 NSCLC
  TGI: > 239 µM
M19-MEL melanoma
  TGI: > 239 µM
K-562 leukemia
  TGI: > 239 µM
786-0 renal
  TGI: > 239 µM
SN12C renal
  TGI: > 239 µM
HL-60(TB) leukemia
  TGI: > 239 µM
RPMI-8226 leukemia
  TGI: > 239 µM
TK-10 renal
  TGI: > 239 µM
DMS 114 small cell lung
  TGI: > 239 µM
RXF-631 renal
  TGI: > 239 µM
CAKI-1 renal
  TGI: > 239 µM
HCT-116 colon
  TGI: > 239 µM
KM20L2 colon
  TGI: > 239 µM
SK-OV-3 ovarian
  TGI: > 239 µM
ACHN renal
  TGI: > 239 µM
MALME-3M melanoma
  TGI: > 239 µM
OVCAR-5 ovarian
  TGI: > 239 µM
RXF 393 renal
  TGI: > 239 µM
SF-295 CNS
  TGI: > 239 µM
HCT-15 colon
  TGI: > 239 µM
SF-539 CNS
  TGI: > 239 µM
SW-620 colon
  TGI: > 239 µM
NCI-H460 lung
  TGI: > 239 µM
OVCAR-3 ovarian
  TGI: > 239 µM
KM12 colon
  TGI: > 239 µM
LXFL 529 NSCLC
  TGI: > 239 µM
OVCAR-8 ovarian
  TGI: > 239 µM
SK-MEL-2 melanoma
  TGI: > 239 µM
NCI-H23 lung
  TGI: > 239 µM
NCI-H522 lung
  TGI: > 239 µM
LOX IMVI melanoma
  TGI: > 239 µM
HOP-92 NSCLC
  TGI: 238 µM
XF 498 CNS
  TGI: > 239 µM
CCRF-CEM leukemia
  TGI: > 239 µM
U251 CNS
  TGI: > 239 µM
HT29 colon
  TGI: 142 µM
NCI-H226 lung
  TGI: > 239 µM
SF-268 CNS
  TGI: > 239 µM
EKVX NSCLC
  TGI: > 239 µM
SK-MEL-5 melanoma
  TGI: > 239 µM
IGROV1 ovarian
  TGI: > 239 µM
HCC-2998 colon
  TGI: > 239 µM
COLO 205 colon
  TGI: > 239 µM
UACC-62 melanoma
  TGI: > 239 µM
A549 NSCLC
  TGI: > 239 µM
SNB-19 CNS
  TGI: > 239 µM
MOLT-4 leukemia
  TGI: > 239 µM
DLD-1 colon
  TGI: > 239 µM

## O=C(/C=C/c1ccc(OCCSCCCCCCCCCCSCCOc2ccc(/C=C/C(=O)c3ccc(Cl)cc3)cc2)cc1)c1ccc(Cl)cc1
UACC-257 melanoma
  TGI: > 100 µM
SNB-75 CNS
  TGI: 63.3 µM
DMS 273 small cell lung
  TGI: > 100 µM
SK-MEL-28 melanoma
  TGI: > 100 µM
SR leukemia
  TGI: > 100 µM
OVCAR-4 ovarian
  TGI: > 100 µM
HOP-62 NSCLC
  TGI: 95.4 µM
MDA-MB-435
  TGI: > 100 µM
M19-MEL melanoma
  TGI: > 100 µM
K-562 leukemia
  TGI: > 100 µM
786-0 renal
  TGI: > 100 µM
MCF7 breast
  TGI: > 100 µM
SN12C renal
  TGI: > 100 µM
HL-60(TB) leukemia
  TGI: > 100 µM
RPMI-8226 leukemia
  TGI: > 100 µM
DU-145 prostate
  TGI: > 100 µM
TK-10 renal
  TGI: > 100 µM
DMS 114 small cell lung
  TGI: > 100 µM
RXF-631 renal
  TGI: > 100 µM
MDA-MB-231 breast
  TGI: > 100 µM
CAKI-1 renal
  TGI: > 100 µM
HCT-116 colon
  TGI: > 100 µM
A498 renal
  TGI: > 100 µM
KM20L2 colon
  TGI: > 100 µM
SK-OV-3 ovarian
  TGI: > 92.8 µM
ACHN renal
  TGI: > 100 µM
MALME-3M melanoma
  TGI: > 100 µM
OVCAR-5 ovarian
  TGI: > 100 µM
RXF 393 renal
  TGI: > 80.6 µM
M14 melanoma
  TGI: > 100 µM
SF-295 CNS
  TGI: > 97.6 µM
HCT-15 colon
  TGI: > 100 µM
SF-539 CNS
  TGI: > 81.7 µM
SW-620 colon
  TGI: > 100 µM
NCI-H460 lung
  TGI: > 100 µM
OVCAR-3 ovarian
  TGI: > 100 µM
HOP-18 NSCLC
  TGI: > 100 µM
UO-31 renal
  TGI: > 100 µM
T-47D breast
  TGI: > 100 µM
KM12 colon
  TGI: > 100 µM
LXFL 529 NSCLC
  TGI: > 100 µM
OVCAR-8 ovarian
  TGI: > 100 µM
SK-MEL-2 melanoma
  TGI: > 100 µM
NCI-H23 lung
  TGI: > 100 µM
NCI-H522 lung
  TGI: > 100 µM
NCI/ADR-RES ovarian
  TGI: > 100 µM
LOX IMVI melanoma
  TGI: > 100 µM
HS 578T breast
  TGI: > 100 µM
HOP-92 NSCLC
  TGI: 81.6 µM
BT-549 breast
  TGI: > 100 µM
CCRF-CEM leukemia
  TGI: > 100 µM
PC-3 prostate
  TGI: > 100 µM
U251 CNS
  TGI: > 100 µM
HT29 colon
  TGI: > 100 µM
NCI-H226 lung
  TGI: > 100 µM
SF-268 CNS
  TGI: > 100 µM
EKVX NSCLC
  TGI: > 100 µM
SNB-78 CNS
  TGI: > 100 µM
MDA-N
  TGI: > 100 µM
SK-MEL-5 melanoma
  TGI: > 100 µM
IGROV1 ovarian
  TGI: > 100 µM
HCC-2998 colon
  TGI: > 100 µM
COLO 205 colon
  TGI: > 100 µM
UACC-62 melanoma
  TGI: > 100 µM
A549 NSCLC
  TGI: > 100 µM
SNB-19 CNS
  TGI: > 100 µM
MOLT-4 leukemia
  TGI: > 100 µM
DLD-1 colon
  TGI: > 100 µM
